Several values for one entry are separate records, joined by “and”; a condition that tells them apart may be missing. Equal entries are not always repeated.
System: LG0703-F498-PDC complex spheroid growth
Test: Anticancer human tumor LG0703-F498-PDC patient-derived lung adenocarcinoma cell line growth inhibition [AhR]
Conditions: for viability, T/C: stronger effect = lower value
Procedure, shortened: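 Agents were dosed in half-log steps down from roughly clinical Cmax, or from 10 microM where Cmax was unknown, alone and with AhR antagonists. Read-out: percent test/control growth of tumor spheroids containing HUVEC and MSC stromal cells.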

[1] = curve of first compound, second compound 0.1 µM
[2] = curve of first compound, second compound 0.316 µM
[3] = curve of first compound, second compound 1 µM
[4] = curve of first compound, second compound 3.16 µM
[5] = curve of first compound, second compound 10 µM
[6] = second compound 0.1 µM, first compound 0.00316 µM
[7] = second compound 0.1 µM, first compound 0.01 µM
[8] = second compound 0.1 µM, first compound 0.0316 µM
[9] = second compound 0.1 µM, first compound 0.1 µM
[10] = second compound 0.316 µM, first compound 0.00316 µM
[11] = second compound 0.316 µM, first compound 0.01 µM
[12] = second compound 0.316 µM, first compound 0.0316 µM
[13] = second compound 0.316 µM, first compound 0.1 µM
[14] = second compound 1 µM, first compound 0.00316 µM
[15] = second compound 1 µM, first compound 0.01 µM
[16] = second compound 1 µM, first compound 0.0316 µM
[17] = second compound 1 µM, first compound 0.1 µM
[18] = second compound 3.16 µM, first compound 0.00316 µM
[19] = second compound 3.16 µM, first compound 0.01 µM
[20] = second compound 3.16 µM, first compound 0.0316 µM
[21] = second compound 3.16 µM, first compound 0.1 µM
[22] = second compound 10 µM, first compound 0.00316 µM
[23] = second compound 10 µM, first compound 0.01 µM
[24] = second compound 10 µM, first compound 0.0316 µM
[25] = second compound 10 µM, first compound 0.1 µM
[26] = second compound 0.1 µM, first compound 0.316 µM
[27] = second compound 0.1 µM, first compound 1 µM
[28] = second compound 0.1 µM, first compound 3.16 µM
[29] = second compound 0.1 µM, first compound 10 µM
[30] = second compound 0.316 µM, first compound 0.316 µM
[31] = second compound 0.316 µM, first compound 1 µM
[32] = second compound 0.316 µM, first compound 3.16 µM
[33] = second compound 0.316 µM, first compound 10 µM
[34] = second compound 1 µM, first compound 0.316 µM
[35] = second compound 1 µM, first compound 1 µM
[36] = second compound 1 µM, first compound 3.16 µM
[37] = second compound 1 µM, first compound 10 µM
[38] = second compound 3.16 µM, first compound 0.316 µM
[39] = second compound 3.16 µM, first compound 1 µM
[40] = second compound 3.16 µM, first compound 3.16 µM
[41] = second compound 3.16 µM, first compound 10 µM
[42] = second compound 10 µM, first compound 0.316 µM
[43] = second compound 10 µM, first compound 1 µM
[44] = second compound 10 µM, first compound 3.16 µM
[45] = second compound 10 µM, first compound 10 µM
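Also: luminescence taken as a proxy for viable cell amount.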
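For viability, T/C in this document: percent of DMSO vehicle control where 100% means growth equal to vehicle.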

SMILES	IC50 [1] [nM]	IC50 [2] [nM]	IC50 [3] [nM]	IC50 [4] [nM]	IC50 [5] [nM]	viability, T/C [8] [%]	viability, T/C [9] [%]	viability, T/C [12] [%]	viability, T/C [13] [%]	viability, T/C [16] [%]	viability, T/C [17] [%]	viability, T/C [20] [%]	viability, T/C [21] [%]	viability, T/C [24] [%]	viability, T/C [25] [%]	viability, T/C [26] [%]	viability, T/C [27] [%]	viability, T/C [30] [%]	viability, T/C [31] [%]	viability, T/C [34] [%]	also measured
CC[C@@]1(O)C(=O)OCc2c1cc1n(c2=O)Cc2cc3c(CN(C)C)c(O)ccc3nc2-1 + Cc1ccccc1N=Nc1ccc(NC(=O)c2ccnn2C)c(C)c1	> 100	> 100	> 100	> 100	> 100	88.5	60.3	77.2	66.6	78.9	61.2	61.1	51.1	57.1	60.2						viability, T/C (second compound 0.1 µM, first compound 0.000316 µM): 94.9%; viability, T/C (second compound 0.1 µM, first compound 0.001 µM): 116%; viability, T/C [6]: 92.2%; viability, T/C [7]: 96.2%; viability, T/C (second compound 0.316 µM, first compound 0.000316 µM): 97.8%; viability, T/C (second compound 0.316 µM, first compound 0.001 µM): 93.6%; viability, T/C [10]: 78.5%; viability, T/C [11]: 93.6%; viability, T/C (second compound 1 µM, first compound 0.000316 µM): 93.9%; viability, T/C (second compound 1 µM, first compound 0.001 µM): 82.2%; viability, T/C [14]: 83.5%; viability, T/C [15]: 82.2%; viability, T/C (second compound 3.16 µM, first compound 0.000316 µM): 84.4%; viability, T/C (second compound 3.16 µM, first compound 0.001 µM): 83.9%; viability, T/C [18]: 86.1%; viability, T/C [19]: 72.6%; viability, T/C (second compound 10 µM, first compound 0.000316 µM): 72.9%; viability, T/C (second compound 10 µM, first compound 0.001 µM): 80.5%; viability, T/C [22]: 78.7%; viability, T/C [23]: 63.9%
CC1COCCN1c1cc(C2(S(C)(=N)=O)CC2)nc(-c2ccnc3[nH]ccc23)n1 (configuration not stated) + Cc1ccccc1N=Nc1ccc(NC(=O)c2ccnn2C)c(C)c1	> 10000	> 10000	> 10000	> 10000	> 10000	108	101	100	92.7	99.2	92.9	81.9	88.5	91.4	77.2	97	99.5	105	98	93.7	viability, T/C [28]: 94.8%; viability, T/C [29]: 67.6%; viability, T/C [32]: 95%; viability, T/C [33]: 64.1%; viability, T/C [35]: 96.6%; viability, T/C [36]: 82.1%; viability, T/C [37]: 67.4%; viability, T/C [38]: 107%; viability, T/C [39]: 87.5%; viability, T/C [40]: 68.6%; viability, T/C [41]: 56.1%; viability, T/C [42]: 95.4%; viability, T/C [43]: 91.9%; viability, T/C [44]: 79.7%; viability, T/C [45]: 65.2%
CC1(C)CCC(CN2CCN(c3ccc(C(=O)NS(=O)(=O)c4ccc(NCC5CCOCC5)c([N+](=O)[O-])c4)c(Oc4cnc5[nH]ccc5c4)c3)CC2)=C(c2ccc(Cl)cc2)C1																					viability, T/C (compound 0.0316 µM): 100% and 112% and 101%; viability, T/C (compound 0.1 µM): 105% and 99.6% and 110%; viability, T/C (compound 0.316 µM): 94.1% and 105% and 96.2%; viability, T/C (compound 1 µM): 98.5% and 101% and 95.5%; viability, T/C (compound 3.16 µM): 98.2% (2×) and 102%; viability, T/C (compound 10 µM): 46.4% and 19.4% and 17.5%; IC50 (curve of compound): 9240 nM and 6400 nM and 6390 nM
NS(=O)(=O)OCC1CC(n2ccc3c(NC4CCc5ccccc54)ncnc32)CC1O (configuration not stated) + CC(CO)NC(=O)c1cc(-c2ccc(Cl)cc2)nn(-c2cnn(C)c2)c1=O	3600	1470	882	617	638	94.1	99.9	96.4	88.9	89	76.7	78.4	73.5	78.5	72.6	81.9	71	78.9	51.7	65.4	viability, T/C [28]: 51.7%; viability, T/C [29]: 38.3%; viability, T/C [32]: 45%; viability, T/C [33]: 36.2%; viability, T/C [35]: 48.6%; viability, T/C [36]: 36.8%; viability, T/C [37]: 38.5%; viability, T/C [38]: 60.8%; viability, T/C [39]: 42.5%; viability, T/C [40]: 34.3%; viability, T/C [41]: 34.2%; viability, T/C [42]: 60.5%; viability, T/C [43]: 43.4%; viability, T/C [44]: 34.1%; viability, T/C [45]: 31.9%
CC1COCCN1c1cc(-c2ccnn2C)c2ccnc(-c3ccn[nH]3)c2n1 (configuration not stated) + Cc1ccccc1N=Nc1ccc(NC(=O)c2ccnn2C)c(C)c1	514	678	306	406	592	82.4	72	90.6	73.1	91.6	73.6	69.7	78	97.2	72.9	56.3	41.5	58.4	45.6	50	viability, T/C [6]: 88.3%; viability, T/C [7]: 88.5%; viability, T/C [10]: 98%; viability, T/C [11]: 110%; viability, T/C [14]: 94.4%; viability, T/C [15]: 79.8%; viability, T/C [35]: 38.4%; viability, T/C [18]: 92.8%; viability, T/C [19]: 79.7%; viability, T/C [38]: 49.3%; viability, T/C [39]: 37%; viability, T/C [22]: 86.6%; viability, T/C [23]: 81.7%; viability, T/C [42]: 59.8%; viability, T/C [43]: 42.8%

— PubChem BioAssay AID1919013 (Molecular Pharmacology Branch, DTP, NCI, 2023)
